pIC50: −log10 of the molar value.
How the values were obtained:
M14 = assay: Growth inhibition of human M14 cells assessed as cell growth at 100 uM incubated for 48 hrs by sulforhodamine B assay relative to control; type: functional; settings: M14, 48 h, read-out: Activity
IGROV-1 [1] = assay: Growth inhibition of human IGROV1 cells incubated for 48 hrs by sulforhodamine B assay; type: functional, cell-based; settings: IGROV-1, 48 h
UACC-257 = assay: Growth inhibition of human UACC257 cells assessed as cell growth at 1 uM incubated for 48 hrs by sulforhodamine B assay relative to control; type: functional; settings: UACC-257, 48 h, read-out: Activity
NCI-H322M [2] = assay: Growth inhibition of human NCI-H322M cells assessed as cell growth at 0.01 uM incubated for 48 hrs by sulforhodamine B assay relative to control; type: functional; settings: read-out: Activity
RPMI-8226 = assay: Growth inhibition of human RPMI8226 cells assessed as cell growth at 0.01 uM incubated for 48 hrs by sulforhodamine B assay relative to control; type: functional; settings: RPMI-8226, 48 h, read-out: Activity
CAKI-1 [3] = assay: Growth inhibition of human Caki1 cells assessed as cell growth at 100 uM incubated for 48 hrs by sulforhodamine B assay relative to control; type: functional; settings: CAKI-1, 48 h, read-out: Activity
LOX IMVI [4] = assay: Growth inhibition of human LOXIMVI cells incubated for 48 hrs by sulforhodamine B assay; type: functional
Malme-3M = assay: Growth inhibition of human MALME-3M cells incubated for 48 hrs by sulforhodamine B assay; type: functional, cell-based
MOLT-4 = assay: Growth inhibition of human MOLT4 cells assessed as cell growth at 1 uM incubated for 48 hrs by sulforhodamine B assay relative to control; type: functional; settings: MOLT-4, 48 h, read-out: Activity
SR = assay: Growth inhibition of human SR cells incubated for 48 hrs by sulforhodamine B assay; type: functional, cell-based
A498 = assay: Growth inhibition of human A498 cells assessed as cell growth at 1 uM incubated for 48 hrs by sulforhodamine B assay relative to control; type: functional; settings: A498, 48 h, read-out: Activity
T47D = assay: Growth inhibition of human T47D cells assessed as cell growth at 0.01 uM incubated for 48 hrs by sulforhodamine B assay relative to control; type: functional; settings: read-out: Activity
LOX IMVI [5] = assay: Growth inhibition of human LOXIMVI cells assessed as cell growth at 1 uM incubated for 48 hrs by sulforhodamine B assay relative to control; type: functional; settings: read-out: Activity
SNB-75 = assay: Growth inhibition of human SNB75 cells incubated for 48 hrs by sulforhodamine B assay; type: functional, cell-based; settings: SNB-75, 48 h
HT-29 = assay: Growth inhibition of human HT-29 cells assessed as cell growth at 1 uM incubated for 48 hrs by sulforhodamine B assay relative to control; type: functional; settings: HT-29, 48 h, read-out: Activity
SN12C = assay: Growth inhibition of human SN12C cells assessed as cell growth at 0.1 uM incubated for 48 hrs by sulforhodamine B assay relative to control; type: functional; settings: read-out: Activity
786-0 = assay: Growth inhibition of human 786-0 cells assessed as cell growth at 0.01 uM incubated for 48 hrs by sulforhodamine B assay relative to control; type: functional; settings: 786-0, 48 h, read-out: Activity
CAKI-1 [6] = assay: Growth inhibition of human Caki1 cells assessed as cell growth at 1 uM incubated for 48 hrs by sulforhodamine B assay relative to control; type: functional; settings: CAKI-1, 48 h, read-out: Activity
SW-620 = assay: Growth inhibition of human SW620 cells assessed as cell growth at 0.01 uM incubated for 48 hrs by sulforhodamine B assay relative to control; type: functional; settings: SW-620, 48 h, read-out: Activity
SK-MEL-28 = assay: Growth inhibition of human SK-MEL-28 cells incubated for 48 hrs by sulforhodamine B assay; type: functional, cell-based; settings: SK-MEL-28, 48 h
OVCAR-5 = assay: Growth inhibition of human OVCAR5 cells assessed as cell growth at 0.01 uM incubated for 48 hrs by sulforhodamine B assay relative to control; type: functional; settings: OVCAR-5, 48 h, read-out: Activity
SK-MEL-5 = assay: Growth inhibition of human SK-MEL-5 cells assessed as cell growth at 1 uM incubated for 48 hrs by sulforhodamine B assay relative to control; type: functional; settings: SK-MEL-5, 48 h, read-out: Activity
OVCAR-8 = assay: Growth inhibition of human OVCAR8 cells assessed as cell growth at 100 uM incubated for 48 hrs by sulforhodamine B assay relative to control; type: functional; settings: OVCAR-8, 48 h, read-out: Activity
IGROV-1 [7] = assay: Growth inhibition of human IGROV1 cells assessed as cell growth at 0.01 uM incubated for 48 hrs by sulforhodamine B assay relative to control; type: functional; settings: IGROV-1, 48 h, read-out: Activity
MDA-MB-435 = assay: Growth inhibition of human MDA-MB-435 cells assessed as cell growth at 0.1 uM incubated for 48 hrs by sulforhodamine B assay relative to control; type: functional; settings: MDA-MB-435, 48 h, read-out: Activity
NCI-H322M [8] = assay: Growth inhibition of human NCI-H322M cells incubated for 48 hrs by sulforhodamine B assay; type: functional, cell-based
NCI-H322M [9] = assay: Growth inhibition of human NCI-H322M cells assessed as cell growth at 100 uM incubated for 48 hrs by sulforhodamine B assay relative to control; type: functional; settings: read-out: Activity
U-251 = assay: Growth inhibition of human U251 cells incubated for 48 hrs by sulforhodamine B assay; type: functional, cell-based; settings: U-251, 48 h
Hs-578T = assay: Growth inhibition of human Hs578T cells assessed as cell growth at 0.1 uM incubated for 48 hrs by sulforhodamine B assay relative to control; type: functional; settings: read-out: Activity
[10] = read-out: LC50 (the source's name)
[11] = read-out: pLC50 (the source's name) (converted)

## O=C(Nc1cccc(-n2cc(-c3ccncc3)c(-c3cc(O)cc(Cl)c3)n2)c1)Nc1ccc(Cl)c(C(F)(F)F)c1
M14
  growth at 100 µM: -57%
IGROV-1 [1]; read-out: GI50
  GI50: 3.81 µM
IGROV-1 [1]; [10]
  CC50: > 100 µM
IGROV-1 [1]; read-out: TGI
  TGI: 12.6 µM
IGROV-1 [1]; read-out: pGI50 (converted)
  GI50: 3.8 µM
IGROV-1 [1]; [11]
  CC50: > 100 µM
IGROV-1 [1]; read-out: pTGI (converted)
  TGI: 12.6 µM
UACC-257
  growth at 1 µM: 58%
NCI-H322M [2]
  growth at 0.01 µM: 107%
RPMI-8226
  growth at 0.01 µM: 101%
CAKI-1 [3]
  growth at 100 µM: -38%
LOX IMVI [4]; read-out: GI50
  GI50: 1.97 µM
LOX IMVI [4]; [10]
  CC50: 95.5 µM
LOX IMVI [4]; read-out: TGI
  TGI: 43.6 µM
LOX IMVI [4]; read-out: pGI50 (converted)
  GI50: 1.95 µM
LOX IMVI [4]; [11]
  CC50: 9.55 µM
LOX IMVI [4]; read-out: pTGI (converted)
  TGI: 4.37 µM
Malme-3M; read-out: GI50
  GI50: 2.37 µM
Malme-3M; [10]
  CC50: 24.3 µM
Malme-3M; read-out: TGI
  TGI: 62.5 µM
Malme-3M; read-out: pGI50 (converted)
  GI50: 2.34 µM
Malme-3M; [11]
  CC50: 24.5 µM
Malme-3M; read-out: pTGI (converted)
  TGI: 6.31 µM
MOLT-4
  growth at 1 µM: 52%
SR; read-out: GI50
  GI50: 2.01 µM
SR; [10]
  CC50: > 100 µM
SR; read-out: TGI
  TGI: 51 µM
SR; read-out: pGI50 (converted)
  GI50: 2 µM
SR; [11]
  CC50: > 100 µM
SR; read-out: pTGI (converted)
  TGI: 5.13 µM
A498
  growth at 1 µM: 92%
T47D
  growth at 0.01 µM: 91%
LOX IMVI [5]
  growth at 1 µM: 93%
SNB-75; read-out: GI50
  GI50: 1.49 µM
SNB-75; [10]
  CC50: > 100 µM
SNB-75; read-out: TGI
  TGI: 63.6 µM
SNB-75; read-out: pGI50 (converted)
  GI50: 1.48 µM
SNB-75; [11]
  CC50: > 100 µM
SNB-75; read-out: pTGI (converted)
  TGI: 6.31 µM
HT-29
  growth at 1 µM: 99%
SN12C
  growth at 0.1 µM: 100%
786-0
  growth at 0.01 µM: 98%
CAKI-1 [6]
  growth at 1 µM: 98%
SW-620
  growth at 0.01 µM: 97%
SK-MEL-28; read-out: GI50
  GI50: 2.01 µM
SK-MEL-28; [10]
  CC50: 25.5 µM
SK-MEL-28; read-out: TGI
  TGI: 62 µM
SK-MEL-28; read-out: pGI50 (converted)
  GI50: 2 µM
SK-MEL-28; [11]
  CC50: 26.3 µM
SK-MEL-28; read-out: pTGI (converted)
  TGI: 6.17 µM
OVCAR-5
  growth at 0.01 µM: 98%
SK-MEL-5
  growth at 1 µM: 90%
OVCAR-8
  growth at 100 µM: -52%
IGROV-1 [7]
  growth at 0.01 µM: 94%
MDA-MB-435
  growth at 0.1 µM: 94%
NCI-H322M [8]; read-out: GI50
  GI50: 3.15 µM
NCI-H322M [8]; [10]
  CC50: 95.5 µM
NCI-H322M [8]; read-out: TGI
  TGI: 13 µM
NCI-H322M [8]; read-out: pGI50 (converted)
  GI50: 3.16 µM
NCI-H322M [8]; [11]
  CC50: 95.5 µM
NCI-H322M [8]; read-out: pTGI (converted)
  TGI: 12.9 µM
NCI-H322M [9]
  growth at 100 µM: -81%
U-251
  pIC50: 5.76
U-251; read-out: GI50
  GI50: 1.72 µM
U-251; [10]
  CC50: 77.5 µM
U-251; read-out: TGI
  TGI: 30 µM
U-251; read-out: pGI50 (converted)
  GI50: 1.74 µM
U-251; [11]
  CC50: 7.76 µM
U-251; read-out: pTGI (converted)
  TGI: 3.63 µM
Hs-578T
  growth at 0.1 µM: 94%

Source: ChEMBL document CHEMBL4308841, “Synthesis, in vitro antiproliferative activity, and kinase inhibitory effects of pyrazole-containing diarylureas and diarylamides” (Eur J Med Chem, 2018)
